Experimental data from US20210145801A1, “THERAPY FOR PROTEIN MISFOLDING DISEASE” (WREN THERAPEUTICS LIMITED, priority 2018, published 2021).
“Also recorded” adds a separate entry of the source.

What was measured:
Aβ plaques = experiment: Aβ plaque quantification in APPPS1 transgenic mice; assay type: in vivo; settings: 75 mg/kg/day once daily for 90 days from 60 days of age
Procedure: APPPS1 transgenic mice were used in the study, which co-express the Swedish mutation […] and PS1 mutation L166P under the control of the neuron-specific Thy-1 promoter on a C57BL/6 genetic background. APPPS1 mice were habituated ahead of the study to voluntarily drink a condensed milk formulation from a pipette. The condensed milk used in the study is commercially available (Migros) and contains milk, sugar, stabilizer E339. Body weight was measured ahead of commencing the study to calculate the dose of Netoglitazone for each mouse and to calculate the total blood volume. Mice aged 60 days old were then dosed once daily with a pipette for 90 days. The pipette contained 40-80 μL consisting of either condensed milk (2 ml/kg/day) only (placebo cohort) or condensed milk (2 ml/kg/day) and Netoglitazone (75 mg/kg/day). Blood was collected via retro-orbital sampling to monitor the concentration of Netoglitazone after 7 days and 28 days. Visual monitoring of the mice and measurement of body weight were conducted daily and every other week respectively. At the end of the experiment (i.e. after 90 days of once daily treatment such that mice were 150 days old), mice were euthanized and their brains were analyzed as outlined below. […]
The image files were analysed using custom-coded software. […]

control animals (N2) = experiment: Maximum tolerable dose in control animals; set-up: species or system C. elegans; settings: in vivo
Procedure: Briefly, Netoglitazone stocks (5 mM in 100% DMSO) were used at an appropriate concentration to seed 9-cm NGM plates. Plates were then placed in a laminar flow hood at room temperature (22° C.) for up to 4 hours to dry. C. elegans cultures were then transferred onto media seeded with compound as L4 stage or Day 3 for late treatments and incubated at 24° for the whole experiment. Experiments were carried out at different Netoglitazone concentrations ranging from 0.05 to 500 μM in 1% DMSO. As controls, plates seeded only with 1% DMSO were used.

[1] = test system: ROS production in AD worms; experiment: ROS production (ROS-Glo H2O2 assay) in AD worms; assay type: in vivo, C. elegans; settings: 5 μM administered at L4; D5 of adulthood
Procedure: ROS-Glo™ H2O2 cell kit assay was used (Promega, Fitchburg, Wis., USA) and adapted for C. elegans studies. The ROS-Glo™ H2O2 Assay is a bioluminescent assay that measures the level of H2O2, a reactive oxygen species (ROS), directly in cell culture or tissue or in defined enzyme reactions. A derivatized luciferin substrate is incubated with sample and reacts directly with H2O2 to generate a luciferin precursor. Worms treated with 5 μM Netoglitazone in 1% DMSO or 1% DMSO only were washed using M9 buffer out the NGM plates. The buffer was then changed 3 times to remove the excess bacteria. Worm pellets were then divided in three wells and 80 μl of worm pellet (around 200 worms/well) was incubated for 6 h at RT with 20 μl of a ROS Substrate Solution (Promega, Fitchburg, Wis., USA); mild shaking at 300 rpm was used to avoid worm sedimentation; afterwards, worms were incubated for ca. 20 min with 100 μl of the detection solution; luminescence was then measured with a Clariostar (BMG Labtech, Aylesbury, UK).

O=C1NC(=O)C(Cc2ccc3cc(OCc4ccccc4F)ccc3c2)S1 (stereo not drawn) [Netoglitazone]
Relative number of Aβ plaques in brain vs placebo (Aβ plaques): decrease in the relative number of Aβ plaques | Maximum tolerable dose in control animals (control animals (N2)): < 500 µM | ROS production / levels of oxidative species in AD worms [1]: significantly decreased the levels of oxidative species; also recorded: restores the ROS production in AD worms to normal levels
